Patent publication US20260263340A1, “Cosmetic Products and Cleaning Products Stabilized Against Microbial Attack” (Thor GmbH, priority 2023, published 2026)
Where a name gives a salt, the structure may show the parent alone.

What was measured:
bacteria mixture 3 = experiment: Repeated-inoculation microbiological stress test of body lotion, bacteria mixture 3; type: cell-based, Nesterenkonia spec.; parameters: key to Bacterial growth after inoculation: 0: No growth; Minimal growth, 1 to 10 colonies visible over the entire streak; 2: Light growth, maximum 100 colonies; Moderate growth, maximum 300 to 400 colonies; Uniform growth, >400 colonies, single colonies still clearly recognizable; 5: Heavy growth, too many colonies to count, but no growth over the entire streak; 6: Full growth, barely any single colonies still apparent, growth over the entire streak; settings: for Bacterial growth after inoculation: Body lotion, 6 d
Description: (§1) The tested cleaning composition was an all-purpose cleaner without preservatives and having a pH of 7.7, the skin lotion was a body lotion without preservatives and having a pH of 7.1, and the shampoo was a hair shampoo without preservatives and having a pH of 6.9.
(§2) The cleaning composition was admixed with particular concentrations of guanidine carbonate and guanidine hydrochloride and homogenized. The body lotion and the hair shampoo were each admixed and homogenized with guanidine hydrochloride and with octane-1,2-diol alone or in combination.
(§3) The batches of the products thus obtained were inoculated repeatedly at particular intervals with bacteria mixtures or yeast mixtures that are used as standard for microbiological stress tests of industrial products or cosmetic products (bacteria mixture 1 and 2, yeast mixture 1 and 2).
(§4) The inoculum was added to the respective sample in each inoculation at 2% (v/w) as a fresh cell suspension in a physiological saline solution (0.9% NaCl). The cell count of the inoculum added was 10^8-10^9/ml for the bacteria mixtures, 10^7-10^8/ml for the yeast mixtures, consisting in equal parts of the individual bacteria strains or yeast strains.
The cell suspension of the bacteria mixtures was produced by growing the individual bacteria at 30° C. for 24 h in liquid culture on a shaker. The medium used to grow the bacteria from bacteria mixtures 1 and 2 was Müller-Hinton liquid medium. The bacteria from bacteria mixture 3 were grown in Müller-Hinton liquid medium that had been adjusted to pH 9.5 to 9.7 with an alkaline buffer solution beforehand. After growing, the individual liquid cultures were centrifuged, and the cells were resuspended in physiological saline solution. In order to adjust the mixtures to a total cell count of 10^8 to 10^9/ml, the individual bacteria suspensions, if necessary, were diluted accordingly before being combined with saline solution. The cell count of the inoculum suspensions was determined in each case by chamber counting.
(§5) In the examples, the samples were inoculated three times at weekly intervals with the respective cell suspensions (2% v/w) and the evolution of the bacteria or yeasts was followed by a semiquantitative evaluation method. After each inoculation, microbial infestation in the samples was evaluated in each case after incubation at 30° C. for 6 to 7 days. For this purpose, an aliquot was taken from each sample after homogenization using a sterile plastic inoculation loop (10 μl) and streaked evenly on agar plates (bacteria mixture 1 and 2 on tryptic soy agar, bacteria mixture 3 on DSMZ 31 alkaline nutrient agar, Sabouraud glucose-agar in the case of yeasts). The streaked agar plates were then incubated at 30° C. for 48 hours (bacteria mixture 1 and 2) or 5 to 7 days (bacteria mixture 3), or at 25° C. for 72 hours (yeast mixtures). After incubation, the bacteria colonies or yeast colonies that have grown on the agar plates were visually evaluated and quantified according to the following scheme:
Inoculation 2% (w/v) with bacteria mixture 3, cell count 10^8/ml

yeast mixture 2 [1] = experiment: Repeated-inoculation microbiological stress test of shampoo, yeast mixture 2; type: cell-based, Candida albicans, Candida parapsilosis; parameters: key to Yeast growth after inoculation: 0: No growth; Minimal growth, 1 to 10 colonies visible over the entire streak; 2: Light growth, maximum 100 colonies; Moderate growth, maximum 300 to 400 colonies; Uniform growth, >400 colonies, single colonies still clearly recognizable; 5: Heavy growth, too many colonies to count, but no growth over the entire streak; 6: Full growth, barely any single colonies still apparent, growth over the entire streak; settings: for Yeast growth after inoculation: Shampoo, 6 d
Description: as §1, §2, §3, §4
(§6) The cell suspension of the yeast mixtures was produced by growing the yeast strains on Sabouraud glucose-agar at 25° C. for 48 hours and washing down the cell lawn in each case with physiological saline solution (0.9% NaCl). Further steps for establishment of a cell count of the inoculum suspension of 10^7/ml to 10^8/ml were effected analogously to the production of the bacteria suspensions.
as §5
(§7) Inoculation 2% (w/v) with yeast mixture 2, cell count 10^7/ml

yeast mixture 1 = experiment: Repeated-inoculation microbiological stress test of all-purpose cleaner, yeast mixture 1; type: cell-based; parameters: key to Yeast growth after inoculation: 0: No growth; Minimal growth, 1 to 10 colonies visible over the entire streak; 2: Light growth, maximum 100 colonies; Moderate growth, maximum 300 to 400 colonies; Uniform growth, >400 colonies, single colonies still clearly recognizable; 5: Heavy growth, too many colonies to count, but no growth over the entire streak; 6: Full growth, barely any single colonies still apparent, growth over the entire streak; settings: for Yeast growth after inoculation: All-purpose cleaner, 6 d
Description: as §1, §2, §3, §4, §6, §5
Inoculation 2% (w/v) with yeast mixture 1, cell count 10^8/ml

yeast mixture 2 [2] = experiment: Repeated-inoculation microbiological stress test of body lotion, yeast mixture 2; type: cell-based, Candida albicans, Candida parapsilosis; parameters: key to Yeast growth after inoculation: 0: No growth; Minimal growth, 1 to 10 colonies visible over the entire streak; 2: Light growth, maximum 100 colonies; Moderate growth, maximum 300 to 400 colonies; Uniform growth, >400 colonies, single colonies still clearly recognizable; 5: Heavy growth, too many colonies to count, but no growth over the entire streak; 6: Full growth, barely any single colonies still apparent, growth over the entire streak; settings: for Yeast growth after inoculation: Body lotion, 6 d
Description: as §1, §2, §3, §4, §6, §5, §7

[3] = +10000 ppm guanidine hydrochloride (6180 ppm guanidine) pH 6.8, 1. inoculation
[4] = +10000 ppm guanidine hydrochloride (6180 ppm guanidine) pH 6.8, 2. inoculation
[5] = +10000 ppm guanidine hydrochloride (6180 ppm guanidine) pH 6.8, 3. inoculation
[6] = +2500 ppm octanediol pH 7.0, 1. inoculation
[7] = +2500 ppm octanediol pH 7.0, 2. inoculation
[8] = +2500 ppm octanediol pH 7.0, 3. inoculation
[9] = +5000 ppm octanediol pH 7.0, 1. inoculation
[10] = +5000 ppm octanediol pH 7.0, 2. inoculation
[11] = +5000 ppm octanediol pH 7.0, 3. inoculation

Structure (SMILES): N=C(N)N [guanidine hydrochloride]
- Bacterial growth after inoculation (bacteria mixture 3; [3]): 6
- Bacterial growth after inoculation (bacteria mixture 3; [4]): 6
- Bacterial growth after inoculation (bacteria mixture 3; [5]): 6
- stability of the body lotion to microbial infestation by bacteria (bacteria mixture 3; addition of 3035 ppm of guanidine in the form of guanidine hydrochloride at pH 7.0): distinct improvement in stability
- Yeast growth after inoculation (yeast mixture 2 [1]; +10000 ppm guanidine hydrochloride (6070 ppm guanidine) pH 6.8, 1. inoculation): 4 (Uniform growth, >400 colonies, single colonies still clearly recognizable)
- Yeast growth after inoculation (yeast mixture 2 [1]; +10000 ppm guanidine hydrochloride (6070 ppm guanidine) pH 6.8, 2. inoculation): 6
- Yeast growth after inoculation (yeast mixture 2 [1]; +10000 ppm guanidine hydrochloride (6070 ppm guanidine) pH 6.8, 3. inoculation): 6
- stability of the shampoo to microbial infestation by yeasts (yeast mixture 2 [1]; table 6, addition of 4553 ppm of guanidine in the form of guanidine hydrochloride at pH 6.9): distinct improvement in stability
- Yeast growth after inoculation (yeast mixture 1; +1000 ppm guanidine hydrochloride (618 ppm guanidine) pH 7.7, 1. inoculation): 5
- Yeast growth after inoculation (yeast mixture 1; +1000 ppm guanidine hydrochloride (618 ppm guanidine) pH 7.7, 2. inoculation): 6
- Yeast growth after inoculation (yeast mixture 1; +1000 ppm guanidine hydrochloride (618 ppm guanidine) pH 7.7, 3. inoculation): 6
- Yeast growth after inoculation (yeast mixture 1; +2500 ppm guanidine hydrochloride (1545 ppm guanidine) pH 7.7, 1. inoculation): 1 (Minimal growth, 1 to 10 colonies visible over the entire streak)
- Yeast growth after inoculation (yeast mixture 1; +2500 ppm guanidine hydrochloride (1545 ppm guanidine) pH 7.7, 2. inoculation): 1 (Minimal growth, 1 to 10 colonies visible over the entire streak)
- Yeast growth after inoculation (yeast mixture 1; +2500 ppm guanidine hydrochloride (1545 ppm guanidine) pH 7.7, 3. inoculation): 1 (Minimal growth, 1 to 10 colonies visible over the entire streak)
- Yeast growth after inoculation (yeast mixture 1; +5000 ppm guanidine hydrochloride (3090 ppm guanidine) pH 7.6, 1. inoculation): 0
- Yeast growth after inoculation (yeast mixture 1; +5000 ppm guanidine hydrochloride (3090 ppm guanidine) pH 7.6, 2. inoculation): 0
- Yeast growth after inoculation (yeast mixture 1; +5000 ppm guanidine hydrochloride (3090 ppm guanidine) pH 7.6, 3. inoculation): 1 (Minimal growth, 1 to 10 colonies visible over the entire streak)
- stability of the all-purpose cleaner to microbial infestation by yeasts (yeast mixture 1; addition of 1516 ppm of guanidine in the form of guanidine hydrochloride at pH 7.7): distinct improvement in stability
- Yeast growth after inoculation (yeast mixture 2 [2]; [3]): 5
- Yeast growth after inoculation (yeast mixture 2 [2]; [4]): 6
- Yeast growth after inoculation (yeast mixture 2 [2]; [5]): 6
- stability of the body lotion to microbial infestation by yeasts (yeast mixture 2 [2]; addition of 4553 ppm of guanidine in the form of guanidine hydrochloride at pH 6.9): distinct improvement in stability

Structure (SMILES): CCCCCCC(O)CO (stereo not shown) [octanediol, octane-1,2-diol]
- Bacterial growth after inoculation (bacteria mixture 3; [6]): 4 (Uniform growth, >400 colonies, single colonies still clearly recognizable)
- Bacterial growth after inoculation (bacteria mixture 3; [7]): 6
- Bacterial growth after inoculation (bacteria mixture 3; [8]): 6
- Bacterial growth after inoculation (bacteria mixture 3; [9]): 1 (Minimal growth, 1 to 10 colonies visible over the entire streak)
- Bacterial growth after inoculation (bacteria mixture 3; [10]): 3 (Moderate growth, maximum 300 to 400 colonies)
- Bacterial growth after inoculation (bacteria mixture 3; [11]): 3 (Moderate growth, maximum 300 to 400 colonies)
- Yeast growth after inoculation (yeast mixture 2 [1]; +2500 ppm octanediol pH 6.9, 1. inoculation): 4 (Uniform growth, >400 colonies, single colonies still clearly recognizable)
- Yeast growth after inoculation (yeast mixture 2 [1]; +2500 ppm octanediol pH 6.9, 2. inoculation): 5
- Yeast growth after inoculation (yeast mixture 2 [1]; +2500 ppm octanediol pH 6.9, 3. inoculation): 6
- Yeast growth after inoculation (yeast mixture 2 [1]; +5000 ppm octanediol pH 6.9, 1. inoculation): 1 (Minimal growth, 1 to 10 colonies visible over the entire streak)
- Yeast growth after inoculation (yeast mixture 2 [1]; +5000 ppm octanediol pH 6.9, 2. inoculation): 2 (Light growth, maximum 100 colonies)
- Yeast growth after inoculation (yeast mixture 2 [1]; +5000 ppm octanediol pH 6.9, 3. inoculation): 2 (Light growth, maximum 100 colonies)
- Yeast growth after inoculation (yeast mixture 2 [2]; [6]): 5
- Yeast growth after inoculation (yeast mixture 2 [2]; [7]): 6
- Yeast growth after inoculation (yeast mixture 2 [2]; [8]): 6
- Yeast growth after inoculation (yeast mixture 2 [2]; [9]): 3 (Moderate growth, maximum 300 to 400 colonies)
- Yeast growth after inoculation (yeast mixture 2 [2]; [10]): 3 (Moderate growth, maximum 300 to 400 colonies)
- Yeast growth after inoculation (yeast mixture 2 [2]; [11]): 2 (Light growth, maximum 100 colonies)
